For this test, the target named is EGFR (Homo sapiens, UniProt P00533). Briefly: EGFR assay (cellular ELISA, NIH 3T3/C7 cells). Details: expressed in transfected cells; host or cells: NIH 3T3/C7. Format: cell-based. To be noted: read-out: cell EGF IC50. The method, then: EGF Receptor kinase activity in cells genetically engineered to express human EGF-R can be measured as described below:
Materials and Reagents. • a. […] 05-101 (UBI) (a monoclonal antibody recognizing an EGFR extracellular domain). • c. Anti-phosphotyosine antibody (anti-Ptyr) (polyclonal). • d. Detection antibody: Goat anti-rabbit IgG horse radish peroxidase conjugate, TAGO, Inc. Burlingame, Calif. • e. TBST buffer:
• Keep solution in dark at 4° C. until used. • h. Stock reagents of:
Pre-coat ELISA Plate • 1. […] Coated plates are good for up to 10 days when stored at 4° C. • 2. On day-of use, remove coating buffer and replace with blocking buffer (5% Carnation Instant NonFat Dry Milk in PBS). Incubate the plate, shaking, at room temperature (about 23° C. to 25° C.) for 30 minutes. Just prior to use, remove blocking buffer and wash plate 4 times with TBST buffer.
Seeding Cells • 1. […] Choose dishes having 80-90% confluence for the experiment. Trypsinize cells and stop reaction by adding 10% CS DMEM medium. Suspend cells in DMEM medium (10% CS DMEM medium) and centrifuge once at 1000 rpm at room temperature for 5 minutes. • 3. Resuspend cells in seeding medium (DMEM, 0.5% bovine serum), and count the cells using trypan blue. Viability above 90% is acceptable. Seed cells in DMEM medium (0.5% bovine serum) at a density of 10,000 cells per well, 100 μl per well, in a 96 well microtiter plate. Incubate seeded cells in 5% CO2 at 37° C. for about 40 hours.
Assay Procedures. • 1. Check seeded cells for contamination using an inverted microscope. Dilute test compounds stock (10 mg/ml in DMSO) 1:10 in DMEM medium, then transfer 5 μl to a test well for a test compounds drug dilution of 1:200 and a final DMSO concentration of 1%. Control wells receive DMSO alone. Incubate in 5% CO2 at 37° C. for one hour. • 2. Prepare EGF ligand: dilute stock EGF in DMEM so that upon transfer of 10 μl dilute EGF (1:12 dilution), 25 nM final concentration is attained. • 3. Prepare fresh 10 ml HNTG* sufficient for 100 μl per well wherein HNTG* comprises: HNTG stock (2.0 ml), milli-Q H2O (7.3 ml), EDTA, 100 mM, pH 7.0 (0.5 ml), Na3VO4 0.5 M (0.1 ml) and Na4(P2O7), 0.2 M (0.1 ml). • 4. Place on ice. • 5. After two hours incubation with drug, add prepared EGF ligand to cells, 10 μl per well, to yield a final concentration of 25 nM. Control wells receive DMEM alone. Incubate, shaking, at room temperature, for 5 minutes. • 6. Remove test compound, EGF, and DMEM. Wash cells twice with PBS. Transfer HNTG* to cells, 100 μl per well. Place on ice for 5 minutes. Meanwhile, remove blocking buffer from other ELISA plate and wash with TBST as described above. • 7. With a pipette tip securely fitted to a micropipettor, scrape cells from plate and homogenize cell material by repeatedly aspirating and dispensing the HNTG* lysis buffer. Transfer lysate to a coated, blocked, and washed ELISA plate. Incubate shaking at room temperature for one hour. • 8. Remove lysate and wash 4 times with TBST. Transfer freshly diluted anti-Ptyr antibody to ELISA plate at 100 μl per well. Incubate shaking at room temperature for 30 minutes in the presence of the anti-Ptyr antiserum (1:3000 dilution in TBST). • 9. Remove the anti-Ptyr antibody and wash 4 times with TBST. Transfer the freshly diluted TAGO 30 anti-rabbit IgG antibody to the ELISA plate at 100 μl per well. Incubate shaking at room temperature for 30 minutes (anti-rabbit IgG antibody: 1:3000 dilution in TBST). • 10. Remove detection antibody and wash 4 times with TBST. Transfer freshly prepared ABTS/H2O2 solution to ELISA plate, 100 μl per well. Incubate at room temperature for 20 minutes. ABTS/H2O2 solution: 1.2 μl 30% H2O2 in 10 ml ABTS stock. • 11. Stop reaction by adding 50 μl 5N H2SO4 (optional), and determine O.D. at 410 nm. • 12. The maximal phosphotyrosine signal is determined by subtracting the value of the negative controls from the positive controls. […]
EGFR, sequence (P00533 25-1210): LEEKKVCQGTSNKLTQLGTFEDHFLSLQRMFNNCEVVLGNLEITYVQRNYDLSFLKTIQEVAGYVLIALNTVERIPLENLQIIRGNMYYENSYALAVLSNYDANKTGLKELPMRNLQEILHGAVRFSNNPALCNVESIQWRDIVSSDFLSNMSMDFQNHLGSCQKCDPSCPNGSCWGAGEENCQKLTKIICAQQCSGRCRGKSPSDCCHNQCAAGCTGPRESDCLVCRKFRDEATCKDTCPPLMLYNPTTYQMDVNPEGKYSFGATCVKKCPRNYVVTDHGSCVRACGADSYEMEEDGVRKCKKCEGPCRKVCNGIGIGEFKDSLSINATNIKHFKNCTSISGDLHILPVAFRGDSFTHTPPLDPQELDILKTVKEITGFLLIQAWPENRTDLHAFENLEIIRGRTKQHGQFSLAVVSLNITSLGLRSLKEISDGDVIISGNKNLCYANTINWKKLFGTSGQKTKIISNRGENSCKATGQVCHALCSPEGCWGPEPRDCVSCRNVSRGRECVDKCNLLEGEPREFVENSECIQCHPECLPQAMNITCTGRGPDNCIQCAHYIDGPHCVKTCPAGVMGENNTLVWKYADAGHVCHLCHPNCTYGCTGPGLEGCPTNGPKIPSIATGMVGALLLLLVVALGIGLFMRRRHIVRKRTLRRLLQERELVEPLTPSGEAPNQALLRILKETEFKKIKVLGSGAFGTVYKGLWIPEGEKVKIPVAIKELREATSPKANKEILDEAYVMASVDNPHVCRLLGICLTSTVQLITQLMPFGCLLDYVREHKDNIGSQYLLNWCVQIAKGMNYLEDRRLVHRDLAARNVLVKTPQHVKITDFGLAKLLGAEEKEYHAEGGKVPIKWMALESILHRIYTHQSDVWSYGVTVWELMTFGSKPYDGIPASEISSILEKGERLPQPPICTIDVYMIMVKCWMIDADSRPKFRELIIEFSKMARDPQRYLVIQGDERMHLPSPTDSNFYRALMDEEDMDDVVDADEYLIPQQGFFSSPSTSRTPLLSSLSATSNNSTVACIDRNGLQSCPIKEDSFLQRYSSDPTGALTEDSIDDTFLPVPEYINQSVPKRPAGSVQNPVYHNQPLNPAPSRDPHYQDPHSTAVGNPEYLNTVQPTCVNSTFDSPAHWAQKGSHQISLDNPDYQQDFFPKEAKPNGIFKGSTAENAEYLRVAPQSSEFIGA
For orientation: IC50 means the midpoint of a concentration-inhibition curve. Regarding `COc1ccc(C=C2C(=O)Nc3cc(NC(C)=O)ccc32)cc1-c1cccc(NC(C)=O)c1` (mixture of isomers) [Example 63, N-[3-(3′-Acetylamino-6-methoxybiphenyl-3-ylmethylene)-2-oxo-2,3-dihydro-1H-indol-6-yl]-acetamide], the IC50 was more than 100 µM. On to `CC1(C)CCc2cc(C=C3C(=O)Nc4ccc(Br)cc43)ccc2O1` (racemic) [Example 34, 5-Bromo-3-(2,2-dimethylchroman-6-ylmethylene)-1,3-dihydroindol-2-one], for which the IC50 is 38.2 µM. With `COc1c(C(C)C)cc(/C=C2/C(=O)Nc3cc(O)ccc32)cc1C(C)C` [Example 4, 3-(3,5-Diisopropyl-4-methoxybenzylidene)-6-hydroxy-1,3-dihydroindol-2-one] the figure was 20.1 µM; with `COc1c(C(C)C)cc(/C=C2/C(=O)Nc3ccc(C(C)=O)cc32)cc1C(C)C` [Example 5, 5-Acetyl-3-(3,5-diisopropyl-4-methoxybenzylidene)-1,3dihydroindol-2-one], 21.5 µM. As for `COC(=O)c1ccc2c(c1)/C(=C\c1cc(C(C)C)c(OC)c(C(C)C)c1)C(=O)N2` [Example 6, 3-(3,5-Diisopropyl-4-methoxybenzylidene)-2-oxo-2,3-dihydro-1H-indole-5-carboxylic acid methyl ester], the IC50 stood at 40.5 µM. Turning to `COc1ccc(/C=C2/C(=O)Nc3ccccc32)cc1C(C)C` [Example 7, 3-(3-Isopropyl-4-methoxybenzylidene)-1,3-dihydroindol-2-one], the half-inhibitory concentration (IC50) was found to be 40.4 µM. On to `COc1cc(C)c(C=C2C(=O)Nc3ccccc32)cc1C(C)C` [Example 8, 3-(5-Isopropyl-4-methoxy-2-methylbenzylidene)-1,3-dihydroindol-2-one], for which the IC50 stood at 43.7 µM. Turning to `COc1cc(C)c(C=C2C(=O)Nc3ccc(Cl)cc32)cc1C(C)C` [Example 9, 5-Chloro-3-(5-isopropyl-4-methoxy-2-methylbenzylidene)-1,3-dihydroindol-2-one], the IC50 amounted to 34.6 µM. In the case of `COc1ccc(/C=C2/C(=O)Nc3ccccc32)cc1C1CCCC1` [Example 10, 3-(3-Cyclopentyl-4-methoxybenzylidene)-1,3-dihydroindol-2-one], the concentration for half-maximal inhibition (IC50) came out at 56.1 µM. As for `COc1ccc(/C=C2/C(=O)Nc3ccc(F)cc32)cc1C1CCCC1` [Example 11, 3-(3-Cyclopentyl-4-methoxybenzylidene)-5-fluoro-1,3-dihydroindol-2-one], the IC50 came out at 72.9 µM.

As to `COc1ccc(/C=C2/C(=O)Nc3ccccc32)cc1C1CCCCC1` [Example 12, 3-(3-Cyclohexyl-4-methoxybenzylidene)-1,3-dihydroindol-2-one], the IC50 stood at 71.9 µM. For the molecule `COc1ccc(/C=C2/C(=O)Nc3ccc(Br)cc32)cc1-c1ccccc1` [Example 13, 5-Bromo-3-(6-methoxybiphenyl-3-ylmethylene)-1,3-dihydroindol-2-one], the IC50 stood at 30.8 µM.

Take `O=C1Nc2ccc(Cl)cc2/C1=C\c1ccc2c(c1)CCO2` [Example 14, 5-Chloro-3-(2,3-dihydro-benzofuran-5-ylmethylene)-1,3-dihydroindol-2-one]: the 50% inhibitory concentration (IC50) is more than 100 µM. With `CC1(C)CCc2cc(/C=C3/C(=O)Nc4ccc(Cl)cc43)ccc2O1` [Example 15, 5-Chloro-3-(2,2-dimethyl-chroman-6-ylmethylene)-1,3-dihydroindol-2-one] the figure was 46.5 µM; with `CC(=O)Nc1ccc2c(c1)NC(=O)/C2=C/c1ccc(OCCN2CCOCC2)c(C2CCCCC2)c1` [Example 16, N-{3-[3-Cyclohexyl-4-(2-morpholin-4-ylethoxy)-benzylidene]-2-oxo-2,3-dihydro-1H-indol-6-yl}-acetamide], 44.5 µM. Under `COc1ccc2c(c1)/C(=C\c1cc(C(C)C)c(OC)c(C(C)C)c1)C(=O)N2` [Example 17, 3-(3,5-Diisopropyl-4-methoxybenzylidene)-5-methoxy-1,3-dihydroindol-2-one] stands 68 µM; under `COc1ccc(/C=C2/C(=O)Nc3cc(NC(C)=O)ccc32)cc1-c1ccsc1` [Example 18, N-[3-(4-Methoxy-3-thiophene-3-ylbenzylidene)-2-oxo-2,3-dihydro-1H-indol-6-yl]-acetamide], more than 100 µM; under `COc1c(C(C)C)cc(/C=C2/C(=O)Nc3ccc(C)cc32)cc1C(C)C` [Example 19, 3-(3,5-Diisopropyl-4-methoxybenzylidene)-5-methyl-1,3-dihydroindol-2-one], 34.8 µM.

Turning to `COc1c(C(C)C)cc(/C=C2/C(=O)Nc3ccc(N)cc32)cc1C(C)C` [Example 20, 5-Amino-3-(3,5-diisopropyl-4-methoxy-benzylidene)-1,3-dihydroindol-2-one], the IC50 was determined as 78.1 µM. With `COc1c(C)cc(/C=C2/C(=O)Nc3ccc(Cl)cc32)cc1C` [Example 21, 5-Chloro-3-(4-methoxy-3,5-dimethylbenzylidene)-1,3-dihydroindol-2-one] the figure was 18.5 µM; with `COc1c(C(C)C)cc(/C=C2/C(=O)Nc3cc(F)ccc32)cc1C(C)C` [Example 22, 3-(3,5-Diisopropyl-4-methoxybenzylidene)-6-fluoro-1,3-dihydroindol-2-one], more than 100 µM.

As to `CC1(C)CCc2cc(/C=C3/C(=O)Nc4ccc(F)cc43)ccc2O1` [Example 23, 3-(2,2-Dimethylchroman-6-ylmethylene)-5-fluoro-1,3-dihydroindol-2-one], the IC50 stood at 37.7 µM. For `CC(C)c1cc(/C=C2/C(=O)Nc3ccc(Cl)cc32)cc(C(C)C)c1OCCN1CCOCC1` [Example 24, 5-chloro-3-[3,5-diisopropyl-4-(2-morpholin-4-ylethoxy)-benzylidene]-1,3-dihydroindol-2-one], the IC50 worked out at 38.5 µM. With `COc1ccc(/C=C2/C(=O)Nc3ccc(CCN4CCOCC4)cc32)cc1-c1ccsc1` [Example 26, 3-(4-Methoxy-3-thiophen-3-ylbenzylidene)-5-(2-morpholin-4-yl-ethyl)-1,3-dihydroindol-2-one] the figure was 94 µM; with `COc1cc(C)c(C=C2C(=O)Nc3cc(NC(C)=O)ccc32)cc1C(C)C` [Example 27, N-[3-(5-Isopropyl-4-methoxy-2-methyl-benzylidene)-2-oxo-2,3-dihydro-1H-indol-6-yl]-acetamide], 30.6 µM. Under `CCc1ccc2c(c1)/C(=C\c1cc(C(C)C)c(OC)c(C(C)C)c1)C(=O)N2` [Example 28, 3-(3,5-Diisopropyl-4-methoxbenzylidene)-5-ethyl-1,3-dihydroindol-2-one] stands more than 100 µM; under `COc1ccc(C=C2C(=O)Nc3ccccc32)cc1-c1cccc(NC(C)=O)c1` [Example 29, N-[2′-Methoxy-5′-(2-oxo-1,2-dihydroindol-3-ylidenemethyl)-biphenyl-3-yl]-acetamide], more than 100 µM. With `COc1cc(C)c(/C=C2/C(=O)Nc3ccc(F)cc32)cc1C(C)C` [Example 30, 5-Fluoro-3-(5-isopropyl-4-methoxy-2-methyl-benzylidene)-1,3-dihydroindol-2-one] the figure was 63.4 µM.

For the molecule `COc1ccc(/C=C2/C(=O)Nc3cc(NC(C)=O)ccc32)cc1-c1cccs1` [Example 31, N-[3-(4-Methoxy-3-thiophen-2-ylbenzylidene)-2-oxo-2,3-dihydro-1H-indol-6-yl]-acetamide], the half-inhibitory concentration (IC50) came to 29.6 µM.

For the origin of these results see patent US6855730B2, “3-methylidenyl-2-indolinone modulators of protein kinase” (Sugen, Inc., priority 1998, dated 2005).
